Assay [1] relates to Histone deacetylase 5 (Homo sapiens), Q9UQL6 [H1006Y]. The experiment in a line: Inhibition of HDAC5 H1006Y mutant expressed in HEK293 cells. The class given is cell-based.
The subject of assay [2] is T1, Histone deacetylase 7 (Homo sapiens), Q8WUI4 [H843Y].
T1 sequence (whole entry): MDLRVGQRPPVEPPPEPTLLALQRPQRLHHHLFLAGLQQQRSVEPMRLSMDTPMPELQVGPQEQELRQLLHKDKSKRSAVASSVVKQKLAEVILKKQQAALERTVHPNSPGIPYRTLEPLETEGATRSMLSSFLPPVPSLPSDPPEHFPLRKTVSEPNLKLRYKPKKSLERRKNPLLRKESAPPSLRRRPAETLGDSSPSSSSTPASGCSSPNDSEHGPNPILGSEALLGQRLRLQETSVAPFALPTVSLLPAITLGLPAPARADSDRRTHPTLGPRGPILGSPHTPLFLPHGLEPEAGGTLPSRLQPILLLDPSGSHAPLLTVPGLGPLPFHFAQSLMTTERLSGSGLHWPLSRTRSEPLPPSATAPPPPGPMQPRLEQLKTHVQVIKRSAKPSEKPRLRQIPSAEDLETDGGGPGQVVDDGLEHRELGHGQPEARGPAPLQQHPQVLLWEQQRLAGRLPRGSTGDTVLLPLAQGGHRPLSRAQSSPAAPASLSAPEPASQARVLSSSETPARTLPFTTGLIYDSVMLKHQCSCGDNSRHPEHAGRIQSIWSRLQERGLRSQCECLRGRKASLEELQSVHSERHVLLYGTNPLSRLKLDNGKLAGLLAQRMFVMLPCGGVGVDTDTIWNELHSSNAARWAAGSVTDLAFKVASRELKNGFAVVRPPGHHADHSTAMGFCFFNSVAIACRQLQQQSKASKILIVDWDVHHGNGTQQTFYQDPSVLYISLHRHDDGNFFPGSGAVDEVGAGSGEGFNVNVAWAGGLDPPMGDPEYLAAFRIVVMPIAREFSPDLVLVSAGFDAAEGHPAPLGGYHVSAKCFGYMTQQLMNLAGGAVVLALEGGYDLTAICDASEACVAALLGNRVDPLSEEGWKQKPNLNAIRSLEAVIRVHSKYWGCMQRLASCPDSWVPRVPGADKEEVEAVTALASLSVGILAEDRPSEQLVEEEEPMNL
The experiment in a line: Inhibition of HDAC7 H843Y mutant expressed in HEK293 cells. The assay is classed as cell-based.

The target of assay [3] is T2, Histone deacetylase 4 (Homo sapiens, UniProt P56524). The experiment in a line: Inhibition of flag-tagged HDAC4 expressed in HEK293 cells upto 10,000 nM by Biomol assay. The assay is classed as cell-based.
T2 sequence (P56524 whole entry, the tested form may be a part): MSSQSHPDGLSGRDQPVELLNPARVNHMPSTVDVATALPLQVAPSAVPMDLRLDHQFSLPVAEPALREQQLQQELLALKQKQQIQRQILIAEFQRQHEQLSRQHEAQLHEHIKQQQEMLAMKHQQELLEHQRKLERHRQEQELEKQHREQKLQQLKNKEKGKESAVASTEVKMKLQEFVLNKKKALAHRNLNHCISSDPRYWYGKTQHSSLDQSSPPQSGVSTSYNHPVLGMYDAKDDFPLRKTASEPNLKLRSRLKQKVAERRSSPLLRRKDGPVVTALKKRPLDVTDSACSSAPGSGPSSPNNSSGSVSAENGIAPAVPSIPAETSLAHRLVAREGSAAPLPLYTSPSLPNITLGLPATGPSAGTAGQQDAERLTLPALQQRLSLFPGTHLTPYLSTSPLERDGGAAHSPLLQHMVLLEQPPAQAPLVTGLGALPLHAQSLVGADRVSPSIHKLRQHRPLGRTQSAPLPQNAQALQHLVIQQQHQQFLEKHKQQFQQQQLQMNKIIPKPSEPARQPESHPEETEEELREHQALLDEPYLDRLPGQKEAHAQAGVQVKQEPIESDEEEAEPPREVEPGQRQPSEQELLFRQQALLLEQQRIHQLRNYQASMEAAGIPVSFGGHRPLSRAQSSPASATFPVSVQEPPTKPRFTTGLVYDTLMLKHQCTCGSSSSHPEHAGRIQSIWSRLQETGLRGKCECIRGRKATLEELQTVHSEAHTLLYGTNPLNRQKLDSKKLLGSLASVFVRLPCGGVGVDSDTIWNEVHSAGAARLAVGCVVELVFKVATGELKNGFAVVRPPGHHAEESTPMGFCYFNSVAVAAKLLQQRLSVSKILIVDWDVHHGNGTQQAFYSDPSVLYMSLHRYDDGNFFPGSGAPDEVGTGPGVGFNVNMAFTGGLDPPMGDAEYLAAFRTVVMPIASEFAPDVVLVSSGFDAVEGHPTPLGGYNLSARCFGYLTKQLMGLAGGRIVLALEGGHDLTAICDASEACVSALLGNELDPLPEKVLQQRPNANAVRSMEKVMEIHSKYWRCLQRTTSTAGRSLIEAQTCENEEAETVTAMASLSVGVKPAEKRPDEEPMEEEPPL
Assay [4] has as its target T2, Histone deacetylase 4. Put plainly: Inhibition of HDAC4 catalytic domain expressed in HEK293 cells upto 10,000 nM by Biomol assay. The class given is cell-based.
The target in assay [5] is T2, Histone deacetylase 4. Put plainly: Inhibition of flag-tagged HDAC4 by pull-down assay.
Assay [6] addresses T2, Histone deacetylase 4. Put plainly: Inhibition of flag-tagged HDAC4 by Biomol assay.

The structures appear in SMILES notation. Activity calls are given as the source filed them. The calls are words filed in the database; no cut-off is given here.

Chain of Histone deacetylase 5 (Homo sapiens), Q9UQL6 [H1006Y] (Q9UQL6 whole entry H1006Y): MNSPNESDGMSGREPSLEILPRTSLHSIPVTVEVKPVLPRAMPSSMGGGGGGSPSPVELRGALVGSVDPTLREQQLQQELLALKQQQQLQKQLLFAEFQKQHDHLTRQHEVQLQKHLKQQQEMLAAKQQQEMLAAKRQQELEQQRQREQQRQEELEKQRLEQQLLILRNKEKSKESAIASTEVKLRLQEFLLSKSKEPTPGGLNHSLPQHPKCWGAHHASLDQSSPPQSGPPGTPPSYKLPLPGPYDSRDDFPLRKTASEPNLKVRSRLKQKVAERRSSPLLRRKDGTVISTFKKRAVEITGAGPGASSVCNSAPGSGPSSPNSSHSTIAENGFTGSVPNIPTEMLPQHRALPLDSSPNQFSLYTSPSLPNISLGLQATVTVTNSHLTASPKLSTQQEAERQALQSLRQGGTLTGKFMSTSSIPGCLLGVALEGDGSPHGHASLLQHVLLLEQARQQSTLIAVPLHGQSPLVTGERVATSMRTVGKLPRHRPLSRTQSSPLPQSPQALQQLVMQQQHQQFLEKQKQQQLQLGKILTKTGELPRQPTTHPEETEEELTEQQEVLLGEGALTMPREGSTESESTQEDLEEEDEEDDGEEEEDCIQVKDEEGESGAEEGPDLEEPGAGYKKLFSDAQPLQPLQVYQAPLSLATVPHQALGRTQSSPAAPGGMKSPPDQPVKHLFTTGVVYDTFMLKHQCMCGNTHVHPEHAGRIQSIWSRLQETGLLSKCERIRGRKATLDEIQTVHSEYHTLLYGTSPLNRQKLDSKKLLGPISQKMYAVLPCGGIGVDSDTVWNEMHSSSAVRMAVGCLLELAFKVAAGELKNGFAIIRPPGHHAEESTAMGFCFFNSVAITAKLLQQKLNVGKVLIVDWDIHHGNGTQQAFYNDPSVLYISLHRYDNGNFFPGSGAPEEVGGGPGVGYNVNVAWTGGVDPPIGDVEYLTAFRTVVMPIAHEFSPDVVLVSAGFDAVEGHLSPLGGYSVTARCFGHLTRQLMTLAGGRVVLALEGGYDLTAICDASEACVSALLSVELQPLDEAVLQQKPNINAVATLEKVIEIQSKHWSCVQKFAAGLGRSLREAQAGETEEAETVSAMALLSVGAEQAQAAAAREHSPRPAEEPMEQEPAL

For `CCC(=O)CCCCC[C@@H]1NC(=O)[C@H]2CCCCN2C(=O)[C@H]([C@@H](C)CC)NC(=O)[C@H](Cc2cn(OC)c3ccccc23)NC1=O`, the result (in assay [1]; in assay [2]; at Histone deacetylase 4 [3]; on Histone deacetylase 4 [4]) was inactive.

Take `O=C(/C=C/c1ccc(CN(CCO)CCc2c[nH]c3ccccc23)cc1)NO`: the result in assay [1] and in assay [2] was Active.

In general, IC50 refers to the concentration at which inhibition is half-maximal. In the case of `CCC(=O)CCCCC[C@H](NC(=O)[C@H]1CCCCN1C(=O)[C@@H](NC(=O)[C@@H](N)Cc1cn(OC)c2ccccc12)[C@@H](C)CC)C(=O)O`, the IC50 was determined as 152 nM against Histone deacetylase 4 [5] and 88 nM against Histone deacetylase 4 [6].

On to `CCC(=O)CCCCC[C@H](NC(=O)[C@H]1CCCCN1C(=O)[C@@H](NC(=O)[C@@H](N)Cc1cn(OC)c2ccccc12)[C@H](C)CC)C(=O)O`, for which the result on Histone deacetylase 4 [3] and on Histone deacetylase 4 [4] was inactive.
